Entries after “also recorded” stand apart in the source; their conditions may differ.
Assays:
[1] = tested on: transient focal cerebral ischemia (tMCAO); assay: Brain stroke study, transient middle cerebral artery occlusion (tMCAO) in rats (Example 5); assay type: in vivo, Sprague Dawley rats; conditions: for tissue viability (T2 relaxation time): lower T2 in ms vs vehicle
Method: Transient focal cerebral ischemia was produced by right side middle cerebral artery (MCA) occlusion in male Sprague Dawley rats under anesthesia. After 120 min of ischemia, the MCA blood flow was restored. The procedure was therefore named tMCAO. All rats were given an i.p. injection of saline (4 ml per rat) after the surgery. Three groups of rats were used in the study: • Group A: 12 sham operated rats received vehicle by ip injection • Group B: 12 tMCAO rats received vehicle by ip injection • Group C: 12 tMCAO rats received 25HC3S by ip injection The parameters measured were as follows: • Mean body weight over time • Mean 7- and 20-point Neuroscore over time • Limb Placing test results over time • Mean infarct volumes (mm3), edema volumes (mm3) and T2-relaxation times (ms) Behavioral testing was conducted at 24 hours, 3 days, and 7 days post transient middle cerebral artery occlusion (tMCAO). Both 20-point Neuroscore and 7-point Neuroscore tests were conducted to assess post-ischemic motor and behavioral deficits. The Limb Placing test was conducted to assess the sensory motor integration of fore- and hind-limbs responses to tactile and proprioceptive stimulation. MRI acquisitions in vivo for all rats were performed at 24 h and 7 days after tMCAO.Lesion size, tissue viability (T2 in milliseconds), and brain edema were determined using absolute T2-MRI. Eighteen (18) coronal slices of thickness 1 mm were acquired using field-of-view imaging matrix. Absolute T2-values from contra-lateral cortex were used as a reference for tissue viability. All MRI data were analyzed using Matlab software. The infarct volume/oedema analysis was done by an observer blinded to the treatment groups. Results

[2] = Level of 25HC3S in blood and tissues after administration (Example 1A, FIG. 3); assay type: in vivo, mice
Method: FIGS. 3A and B. Concentration of 25HC3S in A, blood and B, the indicated tissues of rats subjected to high levels of ATMP.
(§1) Female mice were peritoneally-injected with acetaminophen (500 mg/kg, in 10% ethanol in PBS) either 0.5 or 2 hrs before being treated by administration of 25HC3S (20 or 25 mg/kg, 10% propylene glycol in PBS). Sera were collected 24 or 48 hrs following acetaminophen administration and enzymatic activities and other serum parameters were measured.
FIGS. 3A and 3B show the level of 25HC3S in blood (3A) and the indicated tissues (3B) at the indicated times after administration.

[3] = tested on: sepsis induced by the endotoxin lipopolysaccaride (LPS); assay: Sepsis induced by LPS, 25HC3S given 2 hrs after LPS (Examples 6A and 6B); assay type: in vivo, C57BL/6J mice; conditions: 25HC3S 25 mg/kg 2 hrs after LPS, vs vehicle
Method: To examine the effect of 25HC3S on sepsis induced by the endotoxin lipopolysaccaride (LPS), 11-week-old female C57BL/6J mice were IV-injected with LPS (30 mg/kg or 40 mg/kg, in PBS) 2 hrs before being treated by administration of 25HC3S (25 mg/kg, 10% propylene glycol in PBS), and mortality was monitored (% survival).

[4] = tested on: high dose of acetaminophen (ATMP); assay: ATMP 600 mg/kg in mice, 10-day mortality and liver function markers (Example 1B); assay type: in vivo
Method: In another set of experiments, female mice were peritoneally-injected with acetaminophen (600 mg/kg, in 20% EtOH in PBS) and were then further treated by peritoneal injection of 25HC3S (25 mg/kg in 10% PG in PBS) 2 and 24 hrs later. Control mice received ATMP without 25HC3S. Mortality was monitored for 10 days.

[5] = tested on: renal ischemia/reperfusion; assay: Kidney ischemia-reperfusion in rats (Example 3); assay type: in vivo, Lewis rats
Method: 25HC3S was dissolved in propylene glycol, at 20 mg/mL, and stored at room temperature as the stock solution. Before use, 3 parts of PBS was mixed with 1 part of DV928 stock solution. The final concentration for injection was 5 mg/ml. Preparation of the Formulation for oral gavage: […]
25HC3S was suspended in 0.5% carboxymethylcellulose (CMC) containing 0.05% tween-80, at 10 mg/mL, and stored at room temperature and mixed well before use.
Adult (9- to 11-week-old) male Lewis (LEW, RE11) rats, 225-250 gram, were housed in a controlled 12-hr light-dark cycle environment and allowed free access to water and regular rat chow. All rats were anesthetized with pentobarbital 40 mg/kg i.p.
Ischemia of the left kidney was performed by transient occlusion of the left renal artery and vein, and ureter for 50 min with a vascular micro-clip. The skin was temporarily closed during the ischemia period, and the rats were put on a heating pad maintained at a temperature of 37° C. At reperfusion, the right kidney was removed before closing the abdomen with 4-0 silk suture.
Animals were randomly divided into 5 groups: • Group A. 25HC3S—i.p. dosing (as pre-treatment) N=12 • Group B. 25HC3S—i.p. dosing (as post-treatment) N=12 • Group C. 25HC3S—oral dosing (as pre-treatment) N=12 • Group D. Vehicle control, i.p. (as pre-treatment) N=6 • Group E. Vehicle control, oral (as pre-treatment) N=6
Rats in the pre-treatment groups received active or vehicle 1 day before (Day −1) the surgical intervention (I/R event) and continued for a total of 4 days. Rats in the post-treatment group received the 1st treatment at 30 min after the renal artery occlusion and continued for a total of 3 days. Blood samples were taken from all rats 2 days before the surgery (as baseline), 3 days after the surgery, and 7 days after the surgery for serum creatinine and blood urea nitrogen (BUN) analysis. All rats were sacrificed on Day 7.

[6] = tested on: acute liver failure, as induced by PO administration of acetaminophen; assay: ATMP 300 mg/kg PO in mice, serum chemistry and body weight (Example 2); assay type: in vivo; conditions: 25HC3S 25 mg/kg IP or PO, 1 hour and 24 hours after ATMP 300 mg/kg PO; vs route-matched vehicle
Method: Mice were challenged with acetaminophen (300 mg/kg PO) and then treated with vehicle or 25HC3S (25 mg/kg) by IP injection or PO gavage, one (1) hour and 24 hours after acetaminophen challenge. Measurements and samples included whole blood for serum and clinical chemistry analysis (ALT, AST, ALK, LDH, BUN and glucose) and livers and kidneys for formalin fixation and histology.

mortality induced by LPS = assay: Mortality induced by LPS, pretreatment with 25HC3S (Example 6C); assay type: in vivo, C57BL/6J mice; conditions: LPS 4 mg/kg IV; 25HC3S 50 mg/kg 2 hrs before LPS; as of day 3; control 40%
Method: A further experiment to examine the effects of pretreatment of 25HC3S on mortality induced by LPS was conducted. In this experiment, 11-week-old female C57BL/6J mice were IV-injected with LPS (4 mg/kg in PBS). The mice were treated by administration of 25HC3S (50 mg/kg, 10% propylene glycol in PBS) 2 hrs before LPS administration, and mortality (% survival) was monitored. The results are presented below and in FIG. 9C.

[7] = Human Phase I single dose ascending study (Example 7); assay type: in vivo
Method: A randomized, double blind, and placebo controlled single dose ascending First-in-human Phase 1 study was conducted. The active agent, 25HC3S, was suspended at 30, 100, 300, and 600 mg in 60 mL of ORA-Blend® SF sugar-free flavored oral suspending vehicle. As Placebo dosage form, calcium carbonate, USP, was suspended at 30, 100, 300, and 600 mg in 60 mL of ORA-Blend® SF sugar-free flavored oral suspending vehicle. The suspension, either active or Placebo, was orally administered to each subject. Each dose group had 4 subjects receiving a single dose of active and 2 subjects receiving a single dose of Placebo. All subjects were monitored by health professionals for any potential adverse events for 7 days following administration.

[8] = tested on: heart ischemia-reperfusion injury; assay: Heart ischemia-reperfusion in mice (Example 4); assay type: in vivo, C67B16 mice
Method: Wild-type C67B16 mice, both males and females, were used in the experiment. After anesthesia, the thorax of each mouse was opened and the heart was subject to a 45-minute ischemic period by ligation of the left anterior descending coronary artery, and then reperfusion was allowed by removing the coronary arterial obstruction. The thorax was closed, and mice were allowed to recover for 24 hours. All animals were sacrificed at the end of the study, 24 h after the procedure, to gain access to the heart tissue. The heart was frozen, sectioned into slices, and then stained to determine the infarct size.
Given the experience that 25-30% of the animals may die within the 24-hour period because of the procedure (occlusion of coronary artery), all groups included 12 animals. The vehicle treated group (12 mice) was compared with 25HC3S treated groups (24 mice). One group of mice received the drug (25HC3S) just before ischemia/reperfusion (FR) and another group received drug about 16-20 h before FR. Administration was via the i.p. route with either vehicle (10% propylene glycol in PBS) or 25HC3S at a dose of 25 mg/kg in the same vehicle.

[9] = tested on: acute liver failure induced by acetaminophen; assay: Acetaminophen (ATMP) 500 mg/kg acute liver failure in mice, serum markers (Example 1A); assay type: in vivo
Method: as §1

[10] = 24 hours post tMCAO, vs vehicle, difference not statistically significant
[11] = 24 hours, 3 days, 7 days post tMCAO, vs vehicle, trend of better scores
[12] = oral gavage pretreatment, higher dose, Day 3, to a lesser extent than injection
[13] = post-treatment by injection, first dose 30 min after occlusion, 3 days
[14] = pretreatment by IP injection a day before surgery, once daily 4 days
[15] = 25HC3S 20 or 25 mg/kg 2 hours after ATMP 500 mg/kg, within 24 hrs

C[C@H](CCCC(C)(C)O)[C@H]1CC[C@H]2[C@@H]3CC=C4C[C@@H](OS(=O)(=O)O)CC[C@]4(C)[C@H]3CC[C@]12C [25HC3S, 5-cholesten-3, 25-diol, 3-sulfate]
brain lesion volume ([1]; 24 hours after tMCAO, vs vehicle, difference not statistically significant): smaller | tissue viability (T2 relaxation time) ([1]; 24 hours post tMCAO): statistically higher tissue viability | % edema [1, 10]: smaller | edema volume [1, 10]: smaller | 7-point Neuroscore [1, 11]: no statistically significant differences | 20-point Neuroscore [1, 11]: no statistically significant differences | Limb Placing test [1, 11]: no statistically significant differences | brain lesion volume ([1]; 7 days after tMCAO, vs vehicle, difference not statistically significant): smaller | % edema ([1]; 7 days post tMCAO): nearly recovered; also recorded: some higher levels of edema | edema volume ([1]; 7 days post tMCAO): nearly recovered; also recorded: some higher levels of edema | tissue viability (T2 relaxation time) ([1]; 7 days post tMCAO): statistically higher tissue viability | irritation, discomfort or adverse side effects ([1]; ip injection in tMCAO rats): did not cause irritation, discomfort, or any adverse side effects | body weight recovery ([1]; starting from Day 4 after tMCAO, vs vehicle): faster recovery in body weights | half-life ([2]; female, mouse, blood, FIG. 3A, read-out: half life in circulation (converted)): ~30 h | tissue distribution ([2]; indicated tissues, FIG. 3B): widely distributed in different tissues | survival (mortality monitored) ([3]; LPS 30 mg/kg IV): lived significantly longer | survival (mortality monitored) ([3]; LPS 40 mg/kg IV): lived significantly longer | survival rate ([4]; 25HC3S 25 mg/kg ip 2 and 24 hrs after ATMP 600 mg/kg, monitored 10 days, vs control): much higher than that of control animals | liver function (damage) markers ALT, AST, AKP and ADH ([4]; surviving mice, sera at 48 hours, vs control (ATMP and vehicle)): lower values of each enzyme | serum BUN level [5, 12]: reduced | serum creatinine level [5, 12]: reduced | serum BUN level [5, 13]: reduced | serum creatinine level [5, 13]: reduced | serum BUN level [5, 14]: significantly improved | serum creatinine level [5, 14]: significantly improved | attenuation of body weight loss [6]: no statistically significant attenuation | attenuation of elevated clinical chemistry parameters (LDH, AST and ALT) [6]: no statistically significant attenuation | survival rate (mortality induced by LPS): 100% | adverse effects ([7]; single oral dose 30, 100, 300, 600 mg suspension, monitored 7 days): No adverse effects were observed | tolerability ([7]; single oral dose 30-600 mg): well tolerated | bioavailability ([7]; single oral dose, plasma samples (FIG. 10)): high bioavailability | size of infarction ([8]; 25HC3S 25 mg/kg i.p. just before or 16-20 h before ischemia/reperfusion, vs vehicle): no statistically significant difference | 24-hour survival rate ([8]; 25HC3S 25 mg/kg i.p., vehicle group 64%): 86% | decrease of serum ALT [9, 15]: 58% | decrease of serum AST [9, 15]: 45% | decrease of serum LDH [9, 15]: 60% | markers of liver and kidney function (ALT, AST, ALK, LDH, BUN, glucose) ([9]; 25HC3S 0.5 hours after ATMP, in 48 hrs): returned most markers of liver and kidney function to normal levels

Source: patent US11612609B2, “Uses of oxygenated cholesterol sulfates (OCS)” (Virginia Commonwealth University, priority 2013, dated 2023)
